Laboratory results from the NIST ThermoML archive (doi:10.1021/je700707y).
Several values for one entry are separate records, joined by “and”; a condition that tells them apart may be missing. Equal values may be shown once.

How the values were obtained:
[1] = 101.33 kPa, Liquid, Vibrating tube method
[2] = wn = mass fraction of the nth substance listed; details: Liquid, Vibrating tube method, w2 = 0.001

C[N+]1(CC#N)CCCC1.O=S(=O)([N-]S(=O)(=O)C(F)(F)F)C(F)(F)F
[1]
Details | mass density [kg/m3]
293.15 K | 1545.4
298.15 K | 1537.8
303.15 K | 1533.1
313.15 K | 1523.8
323.15 K | 1514.5
333.15 K | 1505.5
343.15 K | 1496.7
353.15 K | 1487.8
363.15 K | 1479

CCCCCCCCCCn1cc[n+](C)c1.O=S(=O)([N-]S(=O)(=O)C(F)(F)F)C(F)(F)F
[1]
Details | mass density [kg/m3]
293.15 K | 1282.4
303.15 K | 1273.8
313.15 K | 1265.3
323.15 K | 1256.8
333.15 K | 1248.3
343.15 K | 1239.9
353.15 K | 1231.4
363.15 K | 1223.1

CCCC[N+]1(C)CCCC1.FC(F)(F)C(F)(F)[P-](F)(F)(F)(C(F)(F)C(F)(F)F)C(F)(F)C(F)(F)F
[1]
Details | mass density [kg/m3]
293.15 K | 1588.1
303.15 K | 1577.3
313.15 K | 1566.8
323.15 K | 1556.4
333.15 K | 1545.9
343.15 K | 1535.5
353.15 K | 1525.1
363.15 K | 1514.7

CCCCn1cc[n+](C)c1.F[P-](F)(F)(F)(F)F [1-butyl-3-methylimidazolium hexafluorophosphate]
[1]
Details | mass density
293.15 K | 1369.8 kg/m3 and 1368.1 kg/m3
298.15 K | 1365.7 kg/m3 and 1364.1 kg/m3
303.15 K | 1361.6 kg/m3 and 1360 kg/m3
308.15 K | 1357.4 kg/m3 and 1355.7 kg/m3
313.15 K | 1353.3 kg/m3 and 1351.8 kg/m3
318.15 K | 1349.2 kg/m3 and 1347.5 kg/m3
323.15 K | 1345.1 kg/m3 and 1343.5 kg/m3
328.15 K | 1341 kg/m3 and 1339.4 kg/m3
333.15 K | 1336.9 kg/m3 and 1335.2 kg/m3
338.15 K | 1332.7 kg/m3 and 1331.1 kg/m3
343.15 K | 1328.6 kg/m3 and 1327 kg/m3

CCCCCCCCCCn1cc[n+](C)c1.O=S(=O)([N-]S(=O)(=O)C(F)(F)F)C(F)(F)F + O
Details | mass density [kg/m3]
[2], 298.15 K, 100 kPa | 1275.5

CCCCn1cc[n+](C)c1.O=S(=O)([O-])C(F)(F)F [1-butyl-3-methylimidazolium trifluoromethanesulfonate]
[1]
Details | mass density [kg/m3]
293.15 K | 1301.3
303.15 K | 1293.4
313.15 K | 1285.6
323.15 K | 1277.7
333.15 K | 1269.9
343.15 K | 1262.3
353.15 K | 1254.5
363.15 K | 1246.9

CCCC[n+]1ccn(C)c1.O=S(=O)([N-]S(=O)(=O)C(F)(F)F)C(F)(F)F + O
[2], 101 kPa
Details | mass density [kg/m3]
293.15 K | 1439.9
298.15 K | 1435.1
303.15 K | 1430.3
308.15 K | 1425.5
313.15 K | 1420.7
318.15 K | 1416
323.15 K | 1411.2
328.15 K | 1406.5
333.15 K | 1401.7
338.15 K | 1396.9
343.15 K | 1392.2

CCn1cc[n+](C)c1.O=S(=O)([N-]S(=O)(=O)C(F)(F)F)C(F)(F)F
[1]
Details | mass density
293.15 K | 1522.9 kg/m3 and 1523.4 kg/m3
298.15 K | 1517.9 kg/m3
303.15 K | 1512.9 kg/m3 and 1513.4 kg/m3
308.15 K | 1507.9 kg/m3
313.15 K | 1502.9 kg/m3 and 1503.4 kg/m3
318.15 K | 1497.9 kg/m3
323.15 K | 1492.9 kg/m3 and 1493.4 kg/m3
328.15 K | 1488 kg/m3
333.15 K | 1483 kg/m3 and 1483.5 kg/m3
338.15 K | 1478 kg/m3
343.15 K | 1473 kg/m3 and 1473.7 kg/m3
353.15 K | 1463.8 kg/m3
363.15 K | 1454 kg/m3

CCCC[n+]1ccn(C)c1.O=S(=O)([N-]S(=O)(=O)C(F)(F)F)C(F)(F)F
[1]
Details | mass density
293.15 K | 1442.7 kg/m3 and 1440.2 kg/m3
298.15 K | 1437.9 kg/m3
303.15 K | 1433.1 kg/m3 and 1430.7 kg/m3
308.15 K | 1428.3 kg/m3
313.15 K | 1423.5 kg/m3 and 1421.2 kg/m3
318.15 K | 1418.8 kg/m3
323.15 K | 1414 kg/m3 and 1411.8 kg/m3
328.15 K | 1409.3 kg/m3
333.15 K | 1404.5 kg/m3 and 1402.4 kg/m3
338.15 K | 1399.7 kg/m3
343.15 K | 1395 kg/m3 and 1393 kg/m3
353.15 K | 1383.6 kg/m3
363.15 K | 1374.3 kg/m3

CCCCn1cc[n+](C)c1.F[B-](F)(F)F [1-butyl-3-methylimidazolium tetrafluoroborate]
[1]
Details | mass density
293.15 K | 1203.8 kg/m3 and 1204.9 kg/m3
298.15 K | 1200 kg/m3 and 1201.1 kg/m3
303.15 K | 1196.2 kg/m3 and 1197.4 kg/m3
308.15 K | 1192.4 kg/m3 and 1193.8 kg/m3
313.15 K | 1188.9 kg/m3 and 1190.1 kg/m3
318.15 K | 1185.4 kg/m3 and 1186.5 kg/m3
323.15 K | 1181.3 kg/m3 and 1182.7 kg/m3
328.15 K | 1177.9 kg/m3 and 1179 kg/m3
333.15 K | 1174.1 kg/m3 and 1175.3 kg/m3
338.15 K | 1170.5 kg/m3 and 1171.7 kg/m3
343.15 K | 1166.9 kg/m3 and 1168 kg/m3

CCCCn1cc[n+](C)c1.F[B-](F)(F)F [1-butyl-3-methylimidazolium tetrafluoroborate] + O
Details | mass density [kg/m3]
[2], 298.15 K, 100 kPa | 1197.5

CCCCCC[n+]1ccn(C)c1.O=S(=O)([N-]S(=O)(=O)C(F)(F)F)C(F)(F)F
[1]
Details | mass density [kg/m3]
293.15 K | 1375.1
303.15 K | 1366
313.15 K | 1356.9
323.15 K | 1347.9
333.15 K | 1338.8
343.15 K | 1329.8
353.15 K | 1320.9
363.15 K | 1311.9

CCCCCCCCn1cc[n+](C)c1.O=S(=O)([N-]S(=O)(=O)C(F)(F)F)C(F)(F)F
[1]
Details | mass density [kg/m3]
293.15 K | 1324.5
303.15 K | 1315.8
313.15 K | 1307
323.15 K | 1298.2
333.15 K | 1289.5
343.15 K | 1280.8
353.15 K | 1272.1
363.15 K | 1263.5

CCOS(=O)(=O)[O-].CCn1cc[n+](C)c1 [1-ethyl-3-methylimidazolium ethyl sulfate]
[1]
Details | mass density [kg/m3]
293.15 K | 1242.3
303.15 K | 1235.6
313.15 K | 1228.9
323.15 K | 1222.1
333.15 K | 1215.5
343.15 K | 1208.8
353.15 K | 1202.2
363.15 K | 1195.6

Cn1cc[n+](C)c1.N#C[S-] [1,3-dimethylimidazolium thiocyanate]
[1]
Details | mass density [kg/m3]
293.15 K | 1160.7
298.15 K | 1157.4
303.15 K | 1154.2
313.15 K | 1147.8
323.15 K | 1141.4
333.15 K | 1135.2
343.15 K | 1129.1
353.15 K | 1123.1
363.15 K | 1117.2

CCCCCCCCCCCCCC[P+](CCCCCC)(CCCCCC)CCCCCC.O=S(=O)([N-]S(=O)(=O)C(F)(F)F)C(F)(F)F
[1]
Details | mass density [kg/m3]
293.15 K | 1067.6
303.15 K | 1060.3
313.15 K | 1052.9
323.15 K | 1045.7
333.15 K | 1038.6
343.15 K | 1031.5
353.15 K | 1024.4
363.15 K | 1017.3

CCCCCCCCCCCCCC[P+](CCCCCC)(CCCCCC)CCCCCC.O=S(=O)([N-]S(=O)(=O)C(F)(F)F)C(F)(F)F + O
Details | mass density [kg/m3]
[2], 298.15 K, 100 kPa | 1060.1

CCn1cc[n+](C)c1.O=S(=O)([N-]S(=O)(=O)C(F)(F)F)C(F)(F)F + O
[2], 101 kPa
Details | mass density [kg/m3]
293.15 K | 1520
298.15 K | 1515
303.15 K | 1510
308.15 K | 1504.9
313.15 K | 1499.8
318.15 K | 1494.8
323.15 K | 1489.8
328.15 K | 1484.8
333.15 K | 1479.7
338.15 K | 1474.7
343.15 K | 1469.7

CCCCn1cc[n+](C)c1.F[P-](F)(F)(F)(F)F [1-butyl-3-methylimidazolium hexafluorophosphate] + O
[2], 101 kPa
Details | mass density [kg/m3]
293.15 K | 1367.5
298.15 K | 1363.4
303.15 K | 1359.2
308.15 K | 1355.2
313.15 K | 1351
318.15 K | 1346.8
323.15 K | 1342.4
328.15 K | 1338.5
333.15 K | 1334.4
338.15 K | 1330.3
343.15 K | 1326.2

CCCCCC[n+]1ccn(C)c1.FC(F)(F)C(F)(F)[P-](F)(F)(F)(C(F)(F)C(F)(F)F)C(F)(F)C(F)(F)F
[1]
Details | mass density [kg/m3]
293.15 K | 1557.1
298.15 K | 1551.8
303.15 K | 1546.4
313.15 K | 1535.7
323.15 K | 1525
333.15 K | 1514.3
343.15 K | 1503.6
353.15 K | 1493
363.15 K | 1482.4

N#CC[n+]1ccccc1.O=S(=O)([N-]S(=O)(=O)C(F)(F)F)C(F)(F)F
[1]
Details | mass density [kg/m3]
293.15 K | 1636.2
298.15 K | 1631.2
303.15 K | 1626.2
313.15 K | 1616.2
323.15 K | 1606.4
333.15 K | 1596.8
343.15 K | 1587.3
353.15 K | 1577.7
363.15 K | 1568.3
